Reference: patent publication US20210171948A1, “COMPOSITIONS AND METHODS FOR TARGETING GLYPICAN-2 IN THE TREATMENT OF CANCER” (Shepherd Therapeutics, Inc., priority 2019, published 2021)
d = 2'-deoxy (DNA); r = 2'-OH (RNA)

Columns and labels:
Format in all cases: cell-based
KELLY cells [1] = test: Cisplatin IC50 in siRNA-transfected cells, Cell Titer Glo 2.0 viability (Example 5)
Method in brief: (§1)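 GPC2 mRNA was lowered with siRNA sequence 3 or 5, with scrambled siRNA as control, delivered using RNAiMAX. At 24 hours after transfection, increasing cisplatin concentrations (0 to 30 uM) were applied. Viability was measured following 72 hours.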

SH-SY5Y cells [2] = test: as above
Method in brief: as §1

CHLA-172 cells [3] = test: as above
Method in brief: as §1

CHLA-136 cells [4] = test: as above
Method in brief: as §1

CHLA-90 cells [5] = test: as above
Method in brief: as §1

RH41 cells = test: as above
Method in brief: as §1

SK-N-BE2 cells [6] = test: as above
Method in brief: as §1

SNU16 cells = test: as above
Method in brief: as §1

GIST-T1 cells = test: as above
Method in brief: as §1

TC32 cells = test: as above
Method in brief: as §1

COV362 cells = test: as above
Method in brief: as §1

SKNAS cells [7] = test: as above
Method in brief: as §1

RH30 cells = test: as above
Method in brief: as §1

TC71 cells = test: as above
Method in brief: as §1

[8] = test system: spheroids from CHP212, SKNAS, SK-N-BE2 and CHLA90 neuroblastoma cells; test: Viability of established spheroid cultures after siRNA transfection (Example 11); conditions: 96 hour following transfection; where GPC2 knockdown was observed (FIG. 7B)
Protocol: The effect of siRNA mediated GPC2 mRNA knockdown was also assessed on established spheroid cultures. Spheroids were established by seeding cells in low attachment plates and culturing for 96 hours. Spheroids were transfected with either a scrambled control siRNA or with GPC2 siRNA of sequence 5 or 7 from Table 7, using the RNAiMAX Lipofectamine kit (Invitrogen, Carlsbad, Calif.) as previously described. At the 96 hour time point following transfection, the degree of GPC2 mRNA knockdown (FIG. 7A) as well as spheroid viability (FIG. 7B) was measured.

SH-SY5Y cells [9] = test: Topotecan IC50 in siRNA-transfected cells, Cell Titer Glo 2.0 viability (Example 10)
Protocol: (§2) GPC2 mRNA expression was reduced and changes in cell viability were assessed in multiple neuroblastoma cell lines. Cells were transfected with either a control siRNA or with GPC2 siRNA sequences 5 or 7 from Table 7 using the RNAiMAX Lipofectamine kit (Invitrogen, Carlsbad, Calif.) as previously described in 96 wells for viability assays. Topotecan was added at increasing concentrations (0-5 uM) to transfected cells at 24 hours post transfection. Following a 72 hour incubation period, viability measurements were made using Cell Titer Glo 2.0.

CHLA-90 cells [10] = test: as above
Protocol: as §2

SK-N-BE2 cells [11] = test: as above
Protocol: as §2

SKNAS cells [12] = test: as above
Protocol: as §2

CHP212 cells = test: as above
Protocol: as §2

KELLY cells [13] = test: Doxorubicin IC50 in siRNA-transfected cells, Cell Titer Glo viability (Example 8)
CHLA-172 cells [14] = test: as above
CHLA-136 cells [15] = test: as above
SKNAS cells [16] = test: as above

Substance: GPC2 siRNA 5: siRNA duplex: sense CUCAGUAGCCCAGCACUCU[dT][dT] (SEQ ID NO: 211), anti-sense AGAGUGCUGGGCUACUGAG[dT][dT] (SEQ ID NO: 212) (sense CUCAGUAGCCCAGCACUCUTT; antisense AGAGUGCUGGGCUACUGAGTT; sugars from the 5' end r19 d2, backbone not given here; listed as Homo sapiens)
- Data Summary: effect of knockdown on sensitivity to cisplatin (KELLY cells [1]; KELLY): increases sensitivity to
- IC50 (KELLY cells [1]; KELLY cells transfected with the labelled siRNA, cisplatin added 24 hours post transfection, 72 hour incubation): 2500 nM
- Data Summary: effect of knockdown on sensitivity to cisplatin (SH-SY5Y cells [2]; SH-SY5Y): increases sensitivity to
- IC50 (SH-SY5Y cells [2]; SH-SY5Y cells transfected with the labelled siRNA, cisplatin added 24 hours post transfection, 72 hour incubation): 9300 nM
- Data Summary: effect of knockdown on sensitivity to cisplatin (CHLA-172 cells [3]; CHLA-172): does not increase
- IC50 (CHLA-172 cells [3]; CHLA-172 cells transfected with the labelled siRNA, cisplatin added 24 hours post transfection, 72 hour incubation): 17000 nM
- Data Summary: effect of knockdown on sensitivity to cisplatin (CHLA-136 cells [4]; CHLA-136): increases sensitivity to
- IC50 (CHLA-136 cells [4]; CHLA-136 cells transfected with the labelled siRNA, cisplatin added 24 hours post transfection, 72 hour incubation): 6000 nM
- Data Summary: effect of knockdown on sensitivity to cisplatin (CHLA-90 cells [5]; CHLA-90): increases sensitivity to
- IC50 (CHLA-90 cells [5]; CHLA-90 cells transfected with the labelled siRNA, cisplatin added 24 hours post transfection, 72 hour incubation): 15000 nM
- Data Summary: effect of knockdown on sensitivity to cisplatin (RH41 cells; RH41): increases sensitivity to
- IC50 (RH41 cells; RH41 cells transfected with the labelled siRNA, cisplatin added 24 hours post transfection, 72 hour incubation): 1000 nM
- Data Summary: effect of knockdown on sensitivity to cisplatin (SK-N-BE2 cells [6]; SK-N-BE2): increases sensitivity to
- IC50 (SK-N-BE2 cells [6]; SK-N-BE2 cells transfected with the labelled siRNA, cisplatin added 24 hours post transfection, 72 hour incubation): 3000 nM
- Data Summary: effect of knockdown on sensitivity to cisplatin (SNU16 cells; SNU16): does not increase
- IC50 (SNU16 cells; SNU16 cells transfected with the labelled siRNA, cisplatin added 24 hours post transfection, 72 hour incubation): 16000 nM
- Data Summary: effect of knockdown on sensitivity to cisplatin (GIST-T1 cells; GIST-T1): increases sensitivity to
- IC50 (GIST-T1 cells; GIST-T1 cells transfected with the labelled siRNA, cisplatin added 24 hours post transfection, 72 hour incubation): 1000 nM
- Data Summary: effect of knockdown on sensitivity to cisplatin (TC32 cells; TC32): does not increase
- IC50 (TC32 cells; TC32 cells transfected with the labelled siRNA, cisplatin added 24 hours post transfection, 72 hour incubation): 1200 nM
- Data Summary: effect of knockdown on sensitivity to cisplatin (COV362 cells; COV362): does not increase
- IC50 (COV362 cells; COV362 cells transfected with the labelled siRNA, cisplatin added 24 hours post transfection, 72 hour incubation): 18000 nM
- Data Summary: effect of knockdown on sensitivity to cisplatin (SKNAS cells [7]; SKNAS): increases sensitivity to
- IC50 (SKNAS cells [7]; SKNAS cells transfected with the labelled siRNA, cisplatin added 24 hours post transfection, 72 hour incubation): 9000 nM
- Data Summary: effect of knockdown on sensitivity to cisplatin (RH30 cells; RH30): does not increase
- IC50 (RH30 cells; RH30 cells transfected with the labelled siRNA, cisplatin added 24 hours post transfection, 72 hour incubation): 2500 nM
- Data Summary: effect of knockdown on sensitivity to cisplatin (TC71 cells; TC71): does not increase
- IC50 (TC71 cells; TC71 cells transfected with the labelled siRNA, cisplatin added 24 hours post transfection, 72 hour incubation): 1400 nM
- Viability of established spheroids [8]: a decrease in spheroid viability was also seen
- Data Summary: effect of knockdown on sensitivity to topotecan (SH-SY5Y cells [9]; SH-SY5Y): not increase sensitivity to topotecan
- IC50 (SH-SY5Y cells [9]; SH-SY5Y cells transfected with the labelled siRNA, topotecan added 24 hours post transfection, 72 hour incubation): 40 nM
- Data Summary: effect of knockdown on sensitivity to topotecan (CHLA-90 cells [10]; CHLA-90): not increase sensitivity to topotecan
- IC50 (CHLA-90 cells [10]; CHLA-90 cells transfected with the labelled siRNA, topotecan added 24 hours post transfection, 72 hour incubation): 110 nM
- Data Summary: effect of knockdown on sensitivity to topotecan (SK-N-BE2 cells [11]; SK-N-BE2): not increase sensitivity to topotecan
- IC50 (SK-N-BE2 cells [11]; SK-N-BE2 cells transfected with the labelled siRNA, topotecan added 24 hours post transfection, 72 hour incubation): 10 nM
- Data Summary: effect of knockdown on sensitivity to topotecan (SKNAS cells [12]; SKNAS): increases sensitivity to topotecan
- IC50 (SKNAS cells [12]; SKNAS cells transfected with the labelled siRNA, topotecan added 24 hours post transfection, 72 hour incubation): 20 nM
- Data Summary: effect of knockdown on sensitivity to topotecan (CHP212 cells; CHP212): not increase sensitivity to topotecan
- IC50 (CHP212 cells; CHP212 cells transfected with the labelled siRNA, topotecan added 24 hours post transfection, 72 hour incubation): 10 nM
- Data Summary: effect of knockdown on sensitivity to doxorubicin (KELLY cells [13]; KELLY): not increase sensitivity
- IC50 (KELLY cells [13]; KELLY cells transfected with the labelled siRNA, doxorubicin added 24 hours post transfection, 72 hour incubation): 60 nM
- Data Summary: effect of knockdown on sensitivity to doxorubicin (CHLA-172 cells [14]; CHLA-172): KD with sequence 5 increases
- IC50 (CHLA-172 cells [14]; CHLA-172 cells transfected with the labelled siRNA, doxorubicin added 24 hours post transfection, 72 hour incubation): 900 nM
- Data Summary: effect of knockdown on sensitivity to doxorubicin (CHLA-136 cells [15]; CHLA-136): KD with sequence 5 increases
- IC50 (CHLA-136 cells [15]; CHLA-136 cells transfected with the labelled siRNA, doxorubicin added 24 hours post transfection, 72 hour incubation): 80 nM
- Data Summary: effect of knockdown on sensitivity to doxorubicin (SKNAS cells [16]; SKNAS): increases sensitivity to
- IC50 (SKNAS cells [16]; SKNAS cells transfected with the labelled siRNA, doxorubicin added 24 hours post transfection, 72 hour incubation): 20 nM
